Experimental findings from US20220235049A1, “SUBSTITUTED PYRROLO [2, 3-b] PYRIDINE AND PYRAZOLO [3,4-b] PYRIDINE DERIVATIVES AS PROTEIN KINASE INHIBITORS” (Fochon Pharmaceuticals, Ltd., priority 2019, published 2022) are described below.

The test system of this test is DOHH2 cells. The test can be described thus: Cell proliferation assay in DOHH2 cells (MTS). Format: cell-based. The conditions noted are these: Homo sapiens, DOHH-2, 120 h. The protocol:
To investigate whether a compound is able to inhibit the activity of BTK in cells, a mechanism-based assay using DOHH2 (DSMZ catalog #: ACC47) cell was developed. In this assay, inhibition of BTK was detected by the inhibition of DOHH2 cells proliferation. Cells were collected and plated onto 96-well plates at the optimized cell density (5000 cells/well). Plates were incubated at 37° C., with 5% CO2 for 4 h. Compounds were serially diluted and added to the plates with the final concentrations as 10000, 3333.3, 1111.1, 370.4, 123.5, 41.2, 13.7, 4.6 and 1.5 nM. Plates were incubated at 37° C., with 5% CO2 for 120 h. An aliquot of 20 μL MTS/100 μL medium mixture solution were added to each well and the plates were incubated for exactly 2 h. The reaction was stopped by adding 25 μL 10% SDS to each well. The absorbance was measured by a microplate reader at 490 nm and 650 nm (reference wavelength). IC50 was calculated using GraphPad Prism 5.0.
Select compounds prepared as described above were assayed according to the biological procedures described herein.
For `COc1cnc2[nH]cc(C(=O)c3cnc(Oc4ccccc4F)cc3C)c2c1N[C@@H]1CC[C@@H](CO)OC1` [Example 76, (6-(2-fluorophenoxy)-4-methylpyridin-3-yl)(4-(((3R,6S)-6-(hydroxymethyl)tetrahydro-2H-pyran-3-yl)amino)-5-methoxy-1H-pyrrolo[2,3-b]pyridin-3-yl)methanone], inhibition was half-maximal at 0.047 µM (IC50).
For the molecule `COc1cnc2[nH]cc(C(=O)c3ccc(Oc4ccccc4F)cc3Cl)c2c1N[C@@H]1CC[C@@H](CO)OC1` [Example 77, (2-chloro-4-(2-fluorophenoxy)phenyl)(4-(((3R,6S)-6-(hydroxymethyl)tetrahydro-2H-pyran-3-yl)amino)-5-methoxy-1H-pyrrolo[2,3-b]pyridin-3-yl)methanone], the IC50 turned out to be 0.001 µM.
`COc1cnc2[nH]cc(C(=O)c3ccc(Oc4ccccc4F)cc3C)c2c1N[C@@H]1CC[C@@H](CO)OC1` [Example 78, (4-(2-fluorophenoxy)-2-methylphenyl)(4-(((3R,6S)-6-(hydroxymethyl)tetrahydro-2H-pyran-3-yl)amino)-5-methoxy-1H-pyrrolo[2,3-b]pyridin-3-yl)methanone] came in with a 50% inhibitory concentration (IC50) of 0.001 µM.
The result for `COc1cc(Oc2ccccc2F)ccc1C(=O)c1c[nH]c2ncc(OC)c(N[C@@H]3CC[C@@H](CO)OC3)c12` [Example 81, (4-(2-fluorophenoxy)-2-methoxyphenyl)(4-(((3R,6S)-6-(hydroxymethyl)tetrahydro-2H-pyran-3-yl)amino)-5-methoxy-1H-pyrrolo[2,3-b]pyridin-3-yl)methanone] reads 0.019 µM; that for `Cc1cc(Oc2ccccc2F)ccc1C(=O)c1c[nH]c2ncc(Cl)c(N[C@@H]3CC[C@@H](CO)OC3)c12` [Example 87, (5-chloro-4-(((3R,6S)-6-(hydroxymethyl)tetrahydro-2H-pyran-3-yl)amino)-1H-pyrrolo[2,3-b]pyridin-3-yl)(4-(2-fluorophenoxy)-2-methylphenyl)methanone], 0.017 µM; that for `N#Cc1cnc2[nH]cc(C(=O)c3ccc(Oc4ccccc4F)cc3)c2c1N[C@@H]1CC[C@@H](CO)OC1` [Example 88, 3-(4-(2-fluorophenoxy)benzoyl)-4-(((3R,6S)-6-(hydroxymethyl)tetrahydro-2H-pyran-3-yl)amino)-1H-pyrrolo[2,3-b]pyridine-5-carbonitrile], 0.099 µM.
The same measure for `N#Cc1cnc2[nH]cc(C(=O)c3ccc(Oc4ccccc4F)cc3F)c2c1N[C@@H]1CC[C@@H](CO)OC1` [Example 90, 3-(2-fluoro-4-(2-fluorophenoxy)benzoyl)-4-(((3R,6S)-6-(hydroxymethyl)tetrahydro-2H-pyran-3-yl)amino)-1H-pyrrolo[2,3-b]pyridine-5-carbonitrile]: 0.05 µM.
For `O=C(c1ccc(Oc2ccccc2F)cc1)c1c[nH]c2ncc(Cl)c(N[C@@H]3CC[C@@H](CO)OC3)c12` [Example 98, (5-chloro-4-(((3R,6S)-6-(hydroxymethyl)tetrahydro-2H-pyran-3-yl)amino)-1H-pyrrolo[2,3-b]pyridin-3-yl)(4-(2-fluorophenoxy)phenyl)methanone], the IC50 was 0.041 µM.
`O=C(c1ccc(Oc2ccccc2F)cc1F)c1c[nH]c2ncc(Cl)c(N[C@@H]3CC[C@@H](CO)OC3)c12` [Example 99, (5-chloro-4-(((3R,6S)-6-(hydroxymethyl)tetrahydro-2H-pyran-3-yl)amino)-1H-pyrrolo[2,3-b]pyridin-3-yl)(2-fluoro-4-(2-fluorophenoxy)phenyl)methanone] came in with an IC50 of 0.024 µM.
Regarding `O=C(c1ccc(Oc2ccccc2F)cc1Cl)c1c[nH]c2ncc(Cl)c(N[C@@H]3CC[C@@H](CO)OC3)c12` [Example 100, (5-chloro-4-(((3R,6S)-6-(hydroxymethyl)tetrahydro-2H-pyran-3-yl)amino)-1H-pyrrolo[2,3-b]pyridin-3-yl)(2-chloro-4-(2-fluorophenoxy)phenyl)methanone], the IC50 was determined as 0.067 µM.
The molecule `O=C(c1ccc(Oc2ccccc2F)cc1F)c1c[nH]c2nccc(N[C@@H]3CC[C@@H](CO)OC3)c12` [Example 102, (2-fluoro-4-(2-fluorophenoxy)phenyl)(4-(((3R,6S)-6-(hydroxymethyl)tetrahydro-2H-pyran-3-yl)amino)-1H-pyrrolo[2,3-b]pyridin-3-yl)methanone] showed an IC50 of 0.007 µM.
Turning to `Cc1cc(Oc2ccccc2F)ncc1C(=O)c1c[nH]c2nccc(N[C@@H]3CC[C@@H](CO)OC3)c12` [Example 103, (6-(2-fluorophenoxy)-4-methylpyridin-3-yl)(4-(((3R,6S)-6-(hydroxymethyl)tetrahydro-2H-pyran-3-yl)amino)-1H-pyrrolo[2,3-b]pyridin-3-yl)methanone], the IC50 is 0.039 µM.
The same measure for `O=C(c1ccc(Oc2ccccc2F)cc1)c1c[nH]c2nccc(N[C@@H]3CC[C@@H](CO)OC3)c12` [Example 104, (4-(2-fluorophenoxy)phenyl)(4-(((3R,6S)-6-(hydroxymethyl)tetrahydro-2H-pyran-3-yl)amino)-1H-pyrrolo[2,3-b]pyridin-3-yl)methanone]: 0.023 µM.
With `COc1cc(Oc2ccccc2F)cnc1C(=O)c1c[nH]c2nccc(N[C@@H]3CC[C@@H](CO)OC3)c12` [Example 110, (5-(2-fluorophenoxy)-3-methoxypyridin-2-yl)(4-(((3R,6S)-6-(hydroxymethyl)tetrahydro-2H-pyran-3-yl)amino)-1H-pyrrolo[2,3-b]pyridin-3-yl)methanone], half-maximal inhibition (IC50) was put at 0.095 µM.
For `O=C(c1ccc(Oc2ccccc2F)cc1)c1c[nH]c2ncc(F)c(N[C@@H]3CC[C@@H](CO)OC3)c12` [Example 114, (5-fluoro-4-(((3R,6S)-6-(hydroxymethyl)tetrahydro-2H-pyran-3-yl)amino)-1H-pyrrolo[2,3-b]pyridin-3-yl)(4-(2-fluorophenoxy)phenyl)methanone], the IC50 was 0.012 µM.
The result for `O=C(c1ccc(Oc2ccccc2F)cc1F)c1c[nH]c2ncc(F)c(N[C@@H]3CC[C@@H](CO)OC3)c12` [Example 115, (5-fluoro-4-(((3R,6S)-6-(hydroxymethyl)tetrahydro-2H-pyran-3-yl)amino)-1H-pyrrolo[2,3-b]pyridin-3-yl)(2-fluoro-4-(2-fluorophenoxy)phenyl)methanone] reads 0.005 µM; that for `Cc1cc(Oc2ccccc2F)ncc1C(=O)c1c[nH]c2ncc(F)c(N[C@@H]3CC[C@@H](CO)OC3)c12` [Example 117, (5-fluoro-4-(((3R,6S)-6-(hydroxymethyl)tetrahydro-2H-pyran-3-yl)amino)-1H-pyrrolo[2,3-b]pyridin-3-yl)(6-(2-fluorophenoxy)-4-methylpyridin-3-yl)methanone], 0.069 µM.
For the molecule `O=C(c1ccc(Oc2ccccc2F)cc1Cl)c1c[nH]c2ncc(F)c(N[C@@H]3CC[C@@H](CO)OC3)c12` [Example 125, (2-chloro-4-(2-fluorophenoxy)phenyl)(5-fluoro-4-(((3R,6S)-6-(hydroxymethyl)tetrahydro-2H-pyran-3-yl)amino)-1H-pyrrolo[2,3-b]pyridin-3-yl)methanone], the IC50 came out at 0.001 µM.
For `Cc1cc(Oc2ccccc2F)ccc1C(=O)c1c[nH]c2ncc(F)c(N[C@@H]3CC[C@@H](CO)OC3)c12` [Example 126, (5-fluoro-4-(((3R,6S)-6-(hydroxymethyl)tetrahydro-2H-pyran-3-yl)amino)-1H-pyrrolo[2,3-b]pyridin-3-yl)(4-(2-fluorophenoxy)-2-methylphenyl)methanone], inhibition was half-maximal at 0.004 µM (IC50).
The same measure for `Cc1cc(Oc2ccccc2F)cc(F)c1C(=O)c1c[nH]c2nccc(N[C@@H]3CC[C@@H](CO)OC3)c12` [Example 130, (2-fluoro-4-(2-fluorophenoxy)-6-methylphenyl)(4-(((3R,6S)-6-(hydroxymethyl)tetrahydro-2H-pyran-3-yl)amino)-1H-pyrrolo[2,3-b]pyridin-3-yl)methanone]: 0.036 µM.
Regarding `COc1cnc2[nH]cc(C(=O)c3c(C)cc(Oc4ccccc4F)cc3F)c2c1N[C@@H]1CC[C@@H](CO)OC1` [Example 132, (2-fluoro-4-(2-fluorophenoxy)-6-methylphenyl)(4-(((3R,6S)-6-(hydroxymethyl)tetrahydro-2H-pyran-3-yl)amino)-5-methoxy-1H-pyrrolo[2,3-b]pyridin-3-yl)methanone], 0.007 µM corresponded to half-maximal inhibition (IC50).
The same measure for `COc1cnc2[nH]cc(C(=O)c3ccc(Oc4ccccc4)cc3C)c2c1N[C@@H]1CC[C@@H](CO)OC1` [Example 134, (4-(((3R,6S)-6-(hydroxymethyl)tetrahydro-2H-pyran-3-yl)amino)-5-methoxy-1H-pyrrolo[2,3-b]pyridin-3-yl)(2-methyl-4-phenoxyphenyl)methanone]: 0.001 µM.
The same measure for `CCOc1cnc2[nH]cc(C(=O)c3c(C)cc(Oc4ccccc4F)cc3F)c2c1N[C@@H]1CC[C@@H](CO)OC1` [Example 135, (5-ethoxy-4-(((3R,6S)-6-(hydroxymethyl)tetrahydro-2H-pyran-3-yl)amino)-1H-pyrrolo[2,3-b]pyridin-3-yl)(2-fluoro-4-(2-fluorophenoxy)-6-methylphenyl)methanone]: 0.001 µM.
The result for `COc1cnc2[nH]cc(C(=O)c3ccc(Oc4ccccc4F)cc3F)c2c1N[C@@H]1CC[C@@H](CNC(C)=O)OC1` [Example 160, N-(((2S,5R)-5-((3-(2-fluoro-4-(2-fluorophenoxy)benzoyl)-5-methoxy-1H-pyrrolo[2,3-b]pyridin-4-yl)amino)tetrahydro-2H-pyran-2-yl)methyl)acetamide] reads 0.001 µM.

In general, IC50 refers to the concentration needed to halve the response being measured. Read a low IC50 as greater potency.
